{
  "source": "patent US20060069132A1",
  "about": "“Azolecarboxamide herbicides” (priority 2004, published 2006)",
  "assay_in_all_cases": "Test J Compounds 2 and 6 alone and in combination with other herbicides, foliage spray",
  "conditions_in_all_cases": "applied alone",
  "key": {"pigweed (AMARE)": {"system": "pigweed (AMARE)", "format": "in vivo, Amaranthus retroflexus", "text": "(§1) Colby's Equation was used to calculate the expected additive herbicidal effect of the mixtures of Compound 6 with Harmony® Extra (i.e. a 2:1 mixture by weight of thifensulfuron-methyl and tribenuron-methyl). Colby's Equation (Colby, S. R. “Calculating Synergistic and Antagonistic Responses of Herbicide Combinations,” Weeds, 15(1), pp 20-22 (1967)) calculates the expected additive effect of herbicidal mixtures, and for two active ingredients is of the form: Pa+b=Pa+Pb−(PaPb/100) wherein • Pa+b is the percentage effect of the mixture expected from additive contribution of the individual components, • Pa is the observed percentage effect of the first active ingredient at the same use rate as in the mixture, and • Pb is the observed percentage effect of the second active ingredient at the same use rate as in the mixture.\n(§2) Seeds of test plants consisting of barnyardgrass (ECHCG; Echinochloa crus-galli (L.) Beauv.), blackgrass (ALOMY; Alopecurus myosuroides Huds.), Surinam grass (BRADC; Urochloa decumbens (Staph) R. D. Webster, previously named Brachiaria decumbens Stapf), cocklebur (XANST, Xanthium strumarium L.), corn (ZEAMD, Zea mays L. cv. ‘Pioneer 33G26’), large crabgrass (DIGSA, Digitaria sanguinalis (L.) Scop.), giant foxtail (SETFA, Setaria faberi Herrm.), lambsquarters (CHEAL, Chenopodium album L.), morningglory (IPOCO, Ipomoea coccinea L.), pigweed (AMARE, Amaranthus retroflexus L.), velvetleaf (ABUTH, Abutilon theophrasti Medik.) wheat (TRZAS, Triticum aestivum L. cv. ‘Recital’) and wild oat (AVEFA, Avena fatua L.) were planted in Redi-Earth® planting medium (Scotts Company, 14111 Scottslawn Road, Marysville, Ohio 43041) comprising spaghnum peat moss and vermiculite. Seeds of small-seeded species were planted about 1 cm deep; larger seeds were planted about 2.5 cm deep. Plants were grown in a greenhouse using supplemental lighting to maintain a photoperiod of about 14 hours; daytime and nighttime temperatures were about 24-30° C. and 22-25° C., respectively. Balanced fertilizer was applied through the watering system. The plants were grown for 7 to 11 days so that at time of treatment the plants ranged in height from 2 to 18 cm (1- to 4-leaf stage). Treatments consisted of Compounds 2 and 6 (technical material), atrazine (90DF), terbacil (Sinbar® 80DF), hexazinone (Velpar® 75WG), diuron (Karmex® 80WP) and paraquat (Gramoxone® Extra, 37%) alone and in combination, suspended or dissolved in an aqueous solvent comprising a nonionic surfactant and applied as a foliage spray using a volume of 541 L/ha. Each treatment was triply replicated. […] Treated plants and controls were maintained in the greenhouse and watered as needed with care to not wet the foliage for the first 24 hours after treatment. The effects on the plants 15 days after treatment were visually compared to untreated controls. Plant response ratings, listed in Table J as the means of the thee replicates, are based on a scale of 0 to 100 where 0 is no effect and 100 is complete control. Also listed in Table J are the expected effects for the mixtures calculated using Colby's Equation."}, "lambsquarters (CHEAL)": {"system": "lambsquarters (CHEAL)", "format": "in vivo, Chenopodium album", "text": "as §1, §2"}, "giant foxtail (SETFA)": {"system": "giant foxtail (SETFA)", "format": "in vivo, Setaria faberi", "text": "as §2"}, "large crabgrass (DIGSA)": {"system": "large crabgrass (DIGSA)", "format": "in vivo, Digitaria sanguinalis", "text": "as §1, §2"}, "Surinam grass (BRADC)": {"system": "Surinam grass (BRADC)", "format": "in vivo, Urochloa decumbens", "text": "as §1, §2"}, "velvetleaf (ABUTH)": {"system": "velvetleaf (ABUTH)", "format": "in vivo, Abutilon theophrasti", "text": "as §1, §2"}, "wild oat (AVEFA)": {"system": "wild oat (AVEFA)", "format": "in vivo, Avena fatua", "text": "as §1, §2"}, "barnyardgrass (ECHCG)": {"system": "barnyardgrass (ECHCG)", "format": "in vivo, Echinochloa crus-galli", "text": "as §1, §2"}, "cocklebur (XANST)": {"system": "cocklebur (XANST)", "format": "in vivo, Xanthium strumarium", "text": "as §2"}, "morningglory (IPOCO)": {"system": "morningglory (IPOCO)", "format": "in vivo, Ipomoea coccinea", "text": "as §2"}, "corn (ZEAMD)": {"system": "corn (ZEAMD)", "format": "in vivo, Zea mays", "text": "as §1, §2"}, "blackgrass (ALOMY)": {"system": "blackgrass (ALOMY)", "format": "in vivo, Alopecurus myosuroides", "text": "as §1, §2"}, "wheat (TRZAS)": {"system": "wheat (TRZAS)", "format": "in vivo, Triticum aestivum", "text": "as §1, §2"}},
  "data": [
    {"smiles": "Cc1[nH]c(=O)n(C(C)(C)C)c(=O)c1Cl", "note": "[terbacil]", "values": [
      {"measurement": "AMARE Obsd.", "setting": "pigweed (AMARE); 250 g a.i./ha", "value": 63},
      {"measurement": "AMARE Obsd.", "setting": "pigweed (AMARE); 500 g a.i./ha", "value": 97},
      {"measurement": "CHEAL Obsd.", "setting": "lambsquarters (CHEAL); 250 g a.i./ha", "value": 93},
      {"measurement": "CHEAL Obsd.", "setting": "lambsquarters (CHEAL); 500 g a.i./ha", "value": 100},
      {"measurement": "SETFA Obsd.", "setting": "giant foxtail (SETFA); 250 g a.i./ha", "value": 18},
      {"measurement": "SETFA Obsd.", "setting": "giant foxtail (SETFA); 500 g a.i./ha", "value": 55},
      {"measurement": "DIGSA Obsd.", "setting": "large crabgrass (DIGSA); 250 g a.i./ha", "value": 45},
      {"measurement": "DIGSA Obsd.", "setting": "large crabgrass (DIGSA); 500 g a.i./ha", "value": 48},
      {"measurement": "BRADC Obsd.", "setting": "Surinam grass (BRADC); 250 g a.i./ha", "value": 75},
      {"measurement": "BRADC Obsd.", "setting": "Surinam grass (BRADC); 500 g a.i./ha", "value": 73},
      {"measurement": "ABUTH Obsd.", "setting": "velvetleaf (ABUTH); 250 g a.i./ha", "value": 92},
      {"measurement": "ABUTH Obsd.", "setting": "velvetleaf (ABUTH); 500 g a.i./ha", "value": 100},
      {"measurement": "AVEFA Obsd.", "setting": "wild oat (AVEFA); 250 g a.i./ha", "value": 68},
      {"measurement": "AVEFA Obsd.", "setting": "wild oat (AVEFA); 500 g a.i./ha", "value": 97},
      {"measurement": "ECHCG Obsd.", "setting": "barnyardgrass (ECHCG); 250 g a.i./ha", "value": 15},
      {"measurement": "ECHCG Obsd.", "setting": "barnyardgrass (ECHCG); 500 g a.i./ha", "value": 63},
      {"measurement": "XANST Obsd.", "setting": "cocklebur (XANST); 250 g a.i./ha", "value": 68},
      {"measurement": "XANST Obsd.", "setting": "cocklebur (XANST); 500 g a.i./ha", "value": 97},
      {"measurement": "IPOCO Obsd.", "setting": "morningglory (IPOCO); 250 g a.i./ha", "value": 78},
      {"measurement": "IPOCO Obsd.", "setting": "morningglory (IPOCO); 500 g a.i./ha", "value": 100},
      {"measurement": "ZEAMD Obsd.", "setting": "corn (ZEAMD); 250 g a.i./ha", "value": 30},
      {"measurement": "ZEAMD Obsd.", "setting": "corn (ZEAMD); 500 g a.i./ha", "value": 75},
      {"measurement": "ALOMY Obsd.", "setting": "blackgrass (ALOMY); 250 g a.i./ha", "value": 62},
      {"measurement": "ALOMY Obsd.", "setting": "blackgrass (ALOMY); 500 g a.i./ha", "value": 97},
      {"measurement": "TRZAS Obsd.", "setting": "wheat (TRZAS); 250 g a.i./ha", "value": 55},
      {"measurement": "TRZAS Obsd.", "setting": "wheat (TRZAS); 500 g a.i./ha", "value": 90}
    ]},
    {"smiles": "C[n+]1ccc(-c2cc[n+](C)cc2)cc1", "note": "[paraquat]", "values": [
      {"measurement": "AMARE Obsd.", "setting": "pigweed (AMARE); 31 g a.i./ha", "value": 90},
      {"measurement": "AMARE Obsd.", "setting": "pigweed (AMARE); 62 g a.i./ha", "value": 100},
      {"measurement": "CHEAL Obsd.", "setting": "lambsquarters (CHEAL); 31 g a.i./ha", "value": 95},
      {"measurement": "CHEAL Obsd.", "setting": "lambsquarters (CHEAL); 62 g a.i./ha", "value": 100},
      {"measurement": "SETFA Obsd.", "setting": "giant foxtail (SETFA); 31 g a.i./ha", "value": 72},
      {"measurement": "SETFA Obsd.", "setting": "giant foxtail (SETFA); 62 g a.i./ha", "value": 88},
      {"measurement": "DIGSA Obsd.", "setting": "large crabgrass (DIGSA); 31 g a.i./ha", "value": 78},
      {"measurement": "DIGSA Obsd.", "setting": "large crabgrass (DIGSA); 62 g a.i./ha", "value": 85},
      {"measurement": "BRADC Obsd.", "setting": "Surinam grass (BRADC); 31 g a.i./ha", "value": 67},
      {"measurement": "BRADC Obsd.", "setting": "Surinam grass (BRADC); 62 g a.i./ha", "value": 95},
      {"measurement": "ABUTH Obsd.", "setting": "velvetleaf (ABUTH); 31 g a.i./ha", "value": 70},
      {"measurement": "ABUTH Obsd.", "setting": "velvetleaf (ABUTH); 62 g a.i./ha", "value": 92},
      {"measurement": "AVEFA Obsd.", "setting": "wild oat (AVEFA); 31 g a.i./ha", "value": 42},
      {"measurement": "AVEFA Obsd.", "setting": "wild oat (AVEFA); 62 g a.i./ha", "value": 63},
      {"measurement": "ECHCG Obsd.", "setting": "barnyardgrass (ECHCG); 31 g a.i./ha", "value": 45},
      {"measurement": "ECHCG Obsd.", "setting": "barnyardgrass (ECHCG); 62 g a.i./ha", "value": 77},
      {"measurement": "XANST Obsd.", "setting": "cocklebur (XANST); 31 g a.i./ha", "value": 100},
      {"measurement": "XANST Obsd.", "setting": "cocklebur (XANST); 62 g a.i./ha", "value": 87},
      {"measurement": "IPOCO Obsd.", "setting": "morningglory (IPOCO); 31 g a.i./ha", "value": 58},
      {"measurement": "IPOCO Obsd.", "setting": "morningglory (IPOCO); 62 g a.i./ha", "value": 90},
      {"measurement": "ZEAMD Obsd.", "setting": "corn (ZEAMD); 31 g a.i./ha", "value": 43},
      {"measurement": "ZEAMD Obsd.", "setting": "corn (ZEAMD); 62 g a.i./ha", "value": 63},
      {"measurement": "ALOMY Obsd.", "setting": "blackgrass (ALOMY); 31 g a.i./ha", "value": 60},
      {"measurement": "ALOMY Obsd.", "setting": "blackgrass (ALOMY); 62 g a.i./ha", "value": 73},
      {"measurement": "TRZAS Obsd.", "setting": "wheat (TRZAS); 31 g a.i./ha", "value": 35},
      {"measurement": "TRZAS Obsd.", "setting": "wheat (TRZAS); 62 g a.i./ha", "value": 83}
    ]}
  ]
}
